Among the data in PubChem BioAssay AID179 (DTP/NCI, 2004) are EC50, IC50 and outcome values, retold here.

The test system of the test is CEM cells HIV-1 protection, formazan growth assay. Description: NCI AIDS Antiviral Assay. To be noted: for IC50: measured here: growth of uninfected CEM cells. A digest of the protocol: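 Five concentrations of each compound were applied to infected and uninfected human CEM cells. Protection from HIV-1 was judged from growth measured with a soluble formazan assay.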

Calls of active or inactive are those of the source.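 How the source made its calls: active means compounds giving half or more protection of infected cells from virus-caused growth loss, again on retest; inactive means the rest.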

Usually EC50 stands for the concentration at which the effect is half-maximal. As usually defined, the IC50 is the concentration needed to halve the response being measured. The low end stands for greater potency in that assay, the high end for weaker potency in that assay.

In the case of `NNC1=Nc2cc3c(cc2C(=O)N2C[C@H](O)CC12)OCO3` (stereo partly specified), the EC50 was greater than 200 µM and the IC50 was greater than 200 µM.
For `O=[N+]([O-])c1ccc(CSc2c3ccccc3nc3ccccc23)cc1`, the EC50 is greater than 200 µM and the IC50 turned out to be 3.39 µM.
As for `ClC(c1ccccc1)(c1ccccc1)c1cccc(-c2cccc(C(Cl)(c3ccccc3)c3ccccc3)c2)c1`, the outcome was inactive.
For the compound `COc1ccccc1NC(=O)/C(=C\N1C(=O)/C(=C/c2cc(OC)c(OC)c(OC)c2)SC1=S)C(C)=O`, the EC50 is greater than 100 µM and the IC50 amounted to 12.9 µM.
For `OCCOCC#CCOCCO` the same measures were greater than 200 µM and greater than 200 µM.
Turning to `COc1ccccc1OCC(Cn1c(=O)nc(-c2ccccc2)c2cc(Cl)ccc21)OC(N)=O` (stereo unspecified), the EC50 was greater than 28.2 µM and the IC50 is greater than 28.2 µM.
For `COC(=O)[C@H](CCCN=C(N)N)NC(=O)CCCCCCCCCCNC(=O)c1cc(CNC2=NCCN2)cc(CNC2=NCCN2)c1`, the EC50 is greater than 100 µM and the IC50 was greater than 100 µM.
In the case of `CCOC(=O)C(C(=O)OCC)=C(N)C(Cl)(Cl)Cl`, the EC50 is greater than 200 µM and the IC50 worked out at 42.7 µM.
For `CCOC(=O)CCC(NC(=O)c1ccc(N2CCN(c3c(C)nc(N)nc3N)CC2)cc1)C(=O)OCC` (stereo unspecified) the same measures were greater than 0.2 µM and 0.0427 µM.
`CCOC(=O)/C(C#N)=C/c1ccccc1OC`: the EC50 is greater than 112 µM and the IC50 is greater than 112 µM.
On to `Cc1ccc(S(=O)(=O)N2CCSCCN(S(=O)(=O)c3ccc(C)cc3)CCN(S(=O)(=O)c3ccc(C)cc3)CC2)cc1`, for which the EC50 is greater than 4.17 µM and the IC50 is greater than 4.17 µM.
For `CC1CC2OC(=N)C1(C#N)C2(C#N)C#N` (stereo unspecified), the EC50 is greater than 200 µM and the IC50 was 10.5 µM.
Take `CC(=O)OCC(=O)[C@@]1(O)CC[C@H]2[C@@H]3C[C@H](C)C4=CC(=O)C=C[C@]4(C)[C@@]3(Br)[C@@H](O)C[C@@]21C`: the result was inactive.
As to `CCN(CC)c1ccc2cc(-c3nc4ccccc4c(=O)[nH]3)c(=N)oc2c1`, the EC50 is greater than 100 µM and the IC50 was greater than 100 µM.
On to `COc1ccc2c(c1)OC(C)(C)C1c3c(cc(OC)c(O)c3C)OC21` (stereo unspecified), for which the EC50 was greater than 200 µM and the IC50 worked out at 9.33 µM.
For `Cn1nc2ccc3nccc(N(CCO)CCO)c3c2n1` the same measures were greater than 631 µM and 31.6 µM.
Regarding `S=C1NC(c2ccco2)N2C(=S)NC(c3ccco3)N12` (stereo unspecified), the outcome was inactive and the IC50 was greater than 200 µM.
`NC(=O)N/N=C(\Cc1nc2ccc(Cl)cc2[nH]c1=O)C(=O)Nc1ccc(Cl)cc1Cl`: the EC50 is greater than 77.6 µM and the IC50 is greater than 77.6 µM.
As for `CN(C)CCNC(=O)c1cccc2c(Nc3ccc(S(N)(=O)=O)cc3)c3ccccc3nc12`, the result was inactive.
For `NC(CSSCC(NC(=O)OCc1ccccc1)C(=O)O)C(=O)O` (stereo unspecified), the EC50 was greater than 200 µM and the IC50 is greater than 200 µM.
Regarding `O=[N+]([O-])c1ccc(Nc2ccccc2)c2nonc12`, the EC50 is greater than 87.1 µM and the IC50 was found to be 41.7 µM.
Consider `NS(=O)(=O)c1ccc(NNc2c3ccccc3nc3ccccc23)cc1`, for which the EC50 was greater than 200 µM and the IC50 is 10.7 µM.
With `CC(=O)Nc1ccc(C2CC(c3ccc([N+](=O)[O-])cc3)=Nc3ccccc3S2=O)cc1` (stereo unspecified), the EC50 was greater than 3.31 µM and the IC50 is greater than 3.31 µM.
For `Cc1nnc2n(c1=O)CCN2C`, the EC50 was greater than 200 µM and the IC50 was greater than 200 µM.
With `CC(C)(C)C(=O)/C=C/c1ccc(Oc2ccccc2)cc1`, the EC50 is greater than 25.7 µM and the IC50 is greater than 25.7 µM.
Regarding `N=c1c2ncn3c(=O)n(-c4ccccc4)c(nc(=O)n1-c1ccccc1)c23`, the EC50 is greater than 14.5 µM and the IC50 was 8.32 µM.
Consider `O=P(NC12CC3CC(CC(C3)C1)C2)(N1CC1)N1CC1`, for which the outcome was inactive.
Turning to `COc1cc2c(cc1O)C1(Cc3ccc4c(c3[C@@H]1O)OCO4)N(C)CC2` (stereo partly specified), the EC50 is greater than 141 µM and the IC50 is greater than 141 µM.
With `COC1OC2COC(c3ccccc3)OC2C(S)C1S` (stereo unspecified), the EC50 was greater than 200 µM and the IC50 is 102 µM.
For `COc1ccc(COCC[C@H](C)OC2OC(CO[Si](C)(C)C(C)(C)C)C(O)C(O)C2O)cc1` (stereo partly specified) the same measures were greater than 200 µM and 16.2 µM.
For `CN1S(=O)(=O)N(C)P12(N=P(CP(=NP13(N(C)S(=O)(=O)N1C)N(C)S(=O)(=O)N3C)(c1ccccc1)c1ccccc1)(c1ccccc1)c1ccccc1)N(C)S(=O)(=O)N2C` the same measures were greater than 70.8 µM and greater than 70.8 µM.
For `CC(/C=C1\N=C(c2ccccc2)OC1=O)=C\c1ccccc1` the same measures were greater than 200 µM and 105 µM.
With `O=C1C(Cl)C(c2ccc([N+](=O)[O-])cc2)N1n1cnc2ccccc2c1=O` (stereo unspecified), the EC50 is greater than 7.41 µM and the IC50 is greater than 7.41 µM.
On to `Fc1ccc(C2SCc3nc4ccccc4n32)c(F)c1` (stereo unspecified), for which the result was inactive.
Take `O=C(N=C1N(c2ccccc2)C(=O)C(=O)N1c1ccccc1)c1ccccc1`: the EC50 was greater than 200 µM and the IC50 was found to be 5.62 µM.
For `COC(=O)c1cc(C#N)[nH]c1-c1cc(Br)cs1` the same measures were greater than 200 µM and 11.7 µM.
For `N#CCCN(CCC#N)c1ccc(/C=C2\CC(O)(c3ccccc3)N(c3ccc(Cl)cc3)C2=O)cc1` (stereo unspecified) the same measures were greater than 5.5 µM and greater than 5.5 µM.
For `Cc1ccc(-c2cn3c(nc4ccccc43)c(-c3ccccc3)n2)cc1` the same measures were greater than 200 µM and 174 µM.
On to `c1ccc(Cc2nc(Cc3n[nH]c(Cc4ccccc4)n3)n[nH]2)cc1`, for which the EC50 was greater than 200 µM and the IC50 was greater than 200 µM.
Compound `CCCNC(=O)CNC(=O)c1ccccc1SC(=O)CCCC[n+]1ccccc1` gave an EC50 of 8.32 µM and an IC50 of 112 µM.
In the case of `Cc1csc(-n2nc(C)cc2C)n1`, the EC50 is greater than 200 µM and the IC50 was greater than 200 µM.
With `CC(C)C(=O)N1Cc2cc(Cl)cc(Cl)c2OC(=O)c2ccccc21`, the EC50 is greater than 29.5 µM and the IC50 is 3.02 µM.
As to `C=C(C)C#CC1(O)C=C(OC)C(OC)=CC1=O` (stereo unspecified), the EC50 was greater than 200 µM and the IC50 is 20.9 µM.
As for `COC(=O)/C=C(C)/C=C/C1OC(C)OCC1O` (stereo unspecified), the EC50 was greater than 1020 µM and the IC50 is greater than 1020 µM.
On to `COc1ccc(/C=N/Nc2nc(-c3cc4oc(=O)n(C)c4cc3Cl)cs2)cc1OC`, for which the EC50 is greater than 11.7 µM and the IC50 is greater than 11.7 µM.
With `COC(=O)/C(=C/c1ccc(OC)cc1)C(C(=O)O)=C(C)C`, the EC50 is greater than 871 µM and the IC50 is 11.2 µM.
For `O=[N+]([O-])c1ccc(CSc2nncc3[nH]cnc23)cc1` the same measures were 31.6 µM and 63.1 µM.
For `CCCCC1(C(=O)OCC)OC12CCCCC2` (stereo unspecified) the same measures were greater than 200 µM and greater than 200 µM.
Turning to `COc1ccccc1C(=O)N(Cc1ccccc1)c1ccc(Cl)c(C(=O)OC(C)C)c1`, the EC50 was greater than 19.5 µM and the IC50 was 15.5 µM.
Consider `O=S(=O)(O)O`, for which the EC50 was greater than 263 µM and the IC50 is 40.7 µM.
As to `O=C(N/C(=C\c1ccc(/C=C(\NC(=O)c2ccccc2)c2nc3cc(Cl)ccc3[nH]2)cc1)c1nc2cc(Cl)ccc2[nH]1)c1ccccc1`, the outcome was inactive.
